Reference: patent publication US10155027B2, “Alpha-galactosidase A and 1-deoxygalactonojirimycin co-formulation for the treatment of fabry disease” (Amicus Therapeutics, Inc., priority 2012, dated 2018)

T1: α-Gal A (Homo sapiens, UniProt P06280)
T1 construct: purchased JCR Pharmaceuticals Co. Ltd, (Japan) JR-051; host or cells: CHO cells
T1 sequence (P06280 32-429): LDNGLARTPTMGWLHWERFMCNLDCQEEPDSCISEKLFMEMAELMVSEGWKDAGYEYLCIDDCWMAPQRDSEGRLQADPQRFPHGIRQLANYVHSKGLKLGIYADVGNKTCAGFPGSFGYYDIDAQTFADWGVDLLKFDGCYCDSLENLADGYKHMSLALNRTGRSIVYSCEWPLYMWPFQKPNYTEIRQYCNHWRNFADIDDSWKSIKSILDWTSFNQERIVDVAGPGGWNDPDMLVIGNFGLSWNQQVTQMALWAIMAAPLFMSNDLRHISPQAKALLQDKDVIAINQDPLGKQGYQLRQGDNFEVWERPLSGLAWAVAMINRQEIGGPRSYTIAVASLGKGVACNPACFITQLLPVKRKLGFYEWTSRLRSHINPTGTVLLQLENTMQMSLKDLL


Assays:
[1] = Plasma PK of α-Gal A (JR-051) in WT mice following single IV infusion; format: in vivo; details: JR-051 1 mg/kg single IV infusion
Description: (§1) Table 1 describes the molar ratios of these compounds:
(§2) Plasma was collected at 0, 15, 30, 45, 60, and 90 min, and 24 hrs post-JR-051. Skin, heart, and kidney were collected 24 hrs post-JR-051. JR-051 plasma levels and tissue uptake were assessed by activity and Western blotting (see Methods section below). A comparison was made between JR-051 administered alone and JR-051 co-formulated with AT1001 groups.
Diluted plasma (1:50) in Lysis Buffer (˜10 μg total protein) was subjected to SDS-PAGE on 4-12% polyacrylamide gels (Invitrogen, Grand Island, N.Y.), transferred to nitrocellulose membranes (Invitrogen), and immunoblotted with rabbit anti-human α-Gal A primary antibody (1:2000 dilution; from Shire Pharmaceuticals, Cambridge, Mass.). Protein bands were detected using peroxidase-conjugated goat anti-rabbit secondary antibody (Jackson Immunosearch Labs, West Grove, Pa.) in combination with enhanced chemiluminescence (Pierce, Rockford, Ill.). Blots were scanned on an Image Station 4000R (Kodak, Rochester, N.Y.).

[2] = Tissue uptake of α-Gal A (JR-051) in WT mice following single IV infusion; format: in vivo; details: data not shown
Description: as §1, §2
A BCA Protein Assay (Pierce, Rockford, Ill.) was used according to the manufacturer's instructions to determine total protein concentration in tissue lysates. […] For tissue Westerns exactly same procedure was followed as described above for plasma except that 50 μg tissue lysate was used.

GL-3 = GL-3 reduction in skin, heart and kidney of GLA KO mice, repeat IV bolus administration; format: in vivo; details: DGJ 0 mg/kg, 4 biweekly IV bolus
Description: Repeat administration of co-formulated product was tested in fourteen-week old GLA KO mice. The mice received four biweekly (once every two weeks) IV bolus injections of 0.5, 1 or 3 mg/kg α-Gal A (JR-051) alone, or co-formulated with 0.3, 1, 3 or 10 mg/kg of DGJ (AT1001). Plasma and tissue levels of α-Gal A, and tissue levels of GL-3 were measured.
Mouse tissues were homogenized in water (1:16.7 tissue:water) using a Fast Prep homogenizer (Pro Scientific, Thorofare, N.J.). Acetone:methanol (50:50) was added at 5× the volume of the homogenate. Samples were vortexed, re-homogenized in the Fast Prep system, and centrifuged at 10600 g for 10 minutes at room temperature. Each supernatant (200 μL of the upper organic portion) was prepared for solid phase extraction by addition of 200 μL dimethyl sulfoxide (DMSO), 50 μL lactosyl ceramide internal standard (from bovine buttermilk; Matreya, LLC, Pleasant Gap, Pa.) at a final concentration of 1.4 μg/mL, and 600 μL of water:methanol (13:87), followed by vortexing. Solid phase extraction was conducted on a pre-conditioned Bond Elut 40 μm, 100 mg C-18 column (Varian Inc, Palo Alto, Calif.) by washing with 67:23:10 methanol:acetone:water and elution with 1 mL of 9:1 acetone:methanol into silanized glass culture tubes containing 200 μL 0.2 mM sodium acetate in DMSO. Total GL-3 levels were determined from 20 μL of each sample extract by liquid chromatography-tandem mass spectroscopy (LC-MS/MS). LC was conducted using an acetone:methanol:acetonitrile (ACN) with sodium acetate binary mobile phase system (mobile phase A: 40:60 methanol:water with 0.1 mM sodium acetate; mobile phase B: 75:15:10 acetone:methanol:ACN with 0.1 mM sodium acetate) with a flow rate of 0.5 mL/min on a C18 column (Aqua 3 μm 100×3.0 mm, 125 A, Phenomenex, Torrance, Calif.). The final GL-3 elution condition was 90% mobile phase B. MS/MS analysis was carried out under positive ion mode (ESI+) and twelve different isoforms of GL-3 [C16:0, C18:0, C20:0, C22:1, C22:0, C23:0, C22:0(2OH), C24:2, C24:1, C24:0, C24:1(2OH), C24:0(2OH)] as well as internal standard were identified in each sample. The following transitions were monitored: m/z 1046.70→m/z 884.7 for C16:0; m/z 1074.8→m/z 912.8 for C18:0; m/z 1102.8→m/z 940.8 for C20:0; m/z 1128.8→m/z 966.8 for C22:1; m/z 1130.9→m/z 968.8 for C22:0; m/z 1144.9→m/z 982.8 for C23:0; m/z 1146.9→m/z 984.8 for C22:0(2OH); m/z 1154.9→m/z 992.8 for C24:2; m/z 1156.9→m/z 994.8 for C24:1; m/z 1158.9→m/z 996.9 for C24:0; m/z 1172.9→m/z 1010.8 for C24:1(2OH); m/z 1174.9→m/z 1012.8 for C24:0(2OH); and m/z 982.9→m/z 820.8 for the lactosyl ceramide internal standard. For quantitation, the area counts for each isoform were determined and then summed to obtain the total GL-3 area counts. The ratio of the total GL-3 area counts to that of the internal standard was determined and used to calculate the final concentration of GL-3 in each sample based on a linear least squares fit equation applied to an 11-point calibration curve prepared in DMSO. Total GL-3 measurements were normalized to the wet tissue weight of each sample.

α-Gal A = molecular target: T1, α-Gal A; assay: α-Gal A stability in whole blood ex vivo at 37° C.; format: in vitro ADME; details: 5 nM and 50 nM α-Gal A formulated without DGJ
Description: The effect of co-formulating α-Gal A with DGJ on α-Gal A stability in blood ex vivo was examined. Time-dependent loss of α-Gal A activity in whole blood at 37° C. was determined. 5 nM and 50 nM α-Gal A was formulated with or without 10 μM DGJ.

[3] = system: R301Q fibroblast cells derived from Fabry patients; assay: α-Gal A uptake and GL-3 reduction in R301Q Fabry patient fibroblasts; format: cell-based, human; details: 0.5 nM enzyme co-formulated with 0.1-100 μM DGJ vs alone
Description: The effect of co-formulating α-Gal A with DGJ on α-Gal A uptake and GL-3 reduction in R301Q and C52S fibroblast cells derived from Fabry patients was determined. 0.5 nM α-Gal A was tested alone or co-formulated with 0.1, 1.0, 10 or 100 μM DGJ. […] The graph bars represent the average of compiled data from 4 separate experiments.
Further reduction after co-incubation with DGJ is also similar between the two enzymes (˜40-50% of baseline). The graph bars represent the average of compiled data from 4 separate experiments.

| Molecule | AUC [1] [nmol/mL] | T1/2 [1] [min] | effect on α-Gal A uptake in skin [2] | GL-3% reduction in heart (GL-3; α-Gal A 0.5 mg/kg) [%] | GL-3% reduction in kidney (GL-3; α-Gal A 0.5 mg/kg) [%] | GL-3% reduction in skin (GL-3; α-Gal A 0.5 mg/kg) [%] | GL-3% reduction in heart (GL-3; α-Gal A 1 mg/kg) [%] | GL-3% reduction in kidney (GL-3; α-Gal A 1 mg/kg) [%] | GL-3% reduction in skin (GL-3; α-Gal A 1 mg/kg) [%] | GL-3% reduction in heart (GL-3; α-Gal A 3 mg/kg) [%] | GL-3% reduction in kidney (GL-3; α-Gal A 3 mg/kg) [%] | GL-3% reduction in skin (GL-3; α-Gal A 3 mg/kg) [%] | half-life of α-Gal A in whole blood (α-Gal A) [h] | increase of enzyme uptake by DGJ [3] |
| --- | --- | --- | --- | --- | --- | --- | --- | --- | --- | --- | --- | --- | --- | --- |
| JR-051: recombinant human α-Gal A produced in CHO cells transformed with an expression vector encoding the human α-Gal A gene (JCR Pharmaceuticals) | 17960 | 6.6 | no significant effect | 72.1 | 42.7 | 85.7 | 82.7 | 54.9 | 90.7 | 93.7 | 69.5 | 97.4 | 4 to 5 | up to 3 fold |
| Fabrazyme: Agalsidase beta, produced by recombinant DNA technology in a Chinese hamster ovary (CHO) cell line; Genzyme Corporation (protein, UniProt P06280 32-429, looked up) Alpha-galactosidase A: LDNGLARTPTMGWLHWERFMCNLDCQEEPDSCISEKLFMEMAELMVSEGWKDAGYEYLCIDDCWMAPQRDSEGRLQADPQRFPHGIRQLANYVHSKGLKLGIYADVGNKTCAGFPGSFGYYDIDAQTFADWGVDLLKFDGCYCDSLENLADGYKHMSLALNRTGRSIVYSCEWPLYMWPFQKPNYTEIRQYCNHWRNFADIDDSWKSIKSILDWTSFNQERIVDVAGPGGWNDPDMLVIGNFGLSWNQQVTQMALWAIMAAPLFMSNDLRHISPQAKALLQDKDVIAINQDPLGKQGYQLRQGDNFEVWERPLSGLAWAVAMINRQEIGGPRSYTIAVASLGKGVACNPACFITQLLPVKRKLGFYEWTSRLRSHINPTGTVLLQLENTMQMSLKDLL | – | – | – | – | – | – | – | – | – | – | – | – | – | up to 4.6 fold |
